Assay results reported in publication PMC5054527, “Mechanism of high affinity inhibition of the human urate transporter URAT1” (Scientific Reports, 2016).
Positions count from the first letter of the chain named. Read-outs that look alike come from different tables or passages of the source.

Assays:
Test in all cases: URAT1 uric acid transport activity assay
Type in all cases: cell-based
[1] = target: T1, r-N35S/Y365F rURAT1 double point mutant (Rattus norvegicus, UniProt Q3ZAV1, N35S/Y365F)
T1 construct: expressed in transfected cells; host or cells: HEK-293T
T1 sequence (Q3ZAV1 1-553 N35S/Y365F): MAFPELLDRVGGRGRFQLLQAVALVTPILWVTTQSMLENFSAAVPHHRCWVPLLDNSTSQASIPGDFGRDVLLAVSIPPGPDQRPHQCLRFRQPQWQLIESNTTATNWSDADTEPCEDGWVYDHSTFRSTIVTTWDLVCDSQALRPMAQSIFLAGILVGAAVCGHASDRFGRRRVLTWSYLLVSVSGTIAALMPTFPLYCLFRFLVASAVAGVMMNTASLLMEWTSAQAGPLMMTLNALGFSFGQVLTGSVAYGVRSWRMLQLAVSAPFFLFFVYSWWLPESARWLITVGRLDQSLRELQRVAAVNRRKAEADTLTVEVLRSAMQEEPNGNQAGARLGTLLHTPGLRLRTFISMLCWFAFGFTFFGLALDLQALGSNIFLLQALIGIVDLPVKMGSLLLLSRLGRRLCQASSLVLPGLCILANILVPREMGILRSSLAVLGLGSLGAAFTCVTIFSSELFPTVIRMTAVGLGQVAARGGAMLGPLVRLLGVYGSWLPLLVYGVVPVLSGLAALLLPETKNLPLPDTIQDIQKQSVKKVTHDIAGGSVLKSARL
From the text: (§1) hURAT1 (GenBank BC053348.1) and rURAT1 (NCBI NM_001034943.1) genes were purchased from Origene Technologies, Inc. and subcloned into pCMV6/neo using NotI, creating pCMV6/neo-hURAT1 and pCMV6/neo-rURAT1. Mutants were produced by polymerase chain reaction (PCR) or site-directed mutagenesis using the QuikChange Lightning Multi Site-Directed Mutagenesis Kit (Agilent Technologies). […] Detailed methods are provided in Supplementary Methods, and primers are listed in Supplementary Table 1. […] Residues in rURAT1 and hOAT1 that correspond to the residues in hURAT1 were identified from aligned protein sequences (Supplementary Fig. 1)[50].
(§2) DNA (10 μg) was mixed with 30 μl of DreamFect Gold (Boca Scientific) in 2 ml OptiMem (Life Technologies). After 20 minutes, 18 ml of media containing 2 × 10^7 cells in suspension was added and mixed, and 200 μl per well were plated onto white clear-bottomed poly-D-lysine coated 96-well plates (BD Biosciences). The cells were assayed the following day.
(§3) Compounds were serially diluted into assay buffer and added to the cells for 5 minutes prior to addition of radiolabelled uric acid substrate. URAT1-expressing cells were incubated with 100 μM ^14C-uric acid for 10 minutes. […] Each treatment was measured in triplicate.
(§4) Unlabelled uric acid was prepared at a 20 mM stock just prior to use in a solution containing 20 mM dibasic potassium phosphate and 20 mM potassium hydroxide.
(§5) Nonlinear regression analyses using GraphPad Prism software were used to calculate the potency of URAT1 inhibitors (IC50 values) from log (inhibitor) versus response - variable slope (four parameters) equations. Statistical significance was assessed using Student’s unpaired t-tests.

[2] = target: T2, r-N35S rURAT1 point mutant (Rattus norvegicus, UniProt Q3ZAV1, N35S); details: for fold increased affinity of r-N35S compared to rURAT1: from IC50 values
T2 construct: expressed in transfected cells; host or cells: HEK-293T
T2 sequence (Q3ZAV1 1-553 N35S): T1 sequence (Q3ZAV1 1-553 N35S/Y365F) with F365Y
From the text: as §1, §2, §3, §4, §5

[3] = target: T3, r-A21T rURAT1 point mutant (Rattus norvegicus, UniProt Q3ZAV1, A21T)
T3 construct: expressed in transfected cells; host or cells: HEK-293T
T3 sequence (Q3ZAV1 1-553 A21T): T1 sequence (Q3ZAV1 1-553 N35S/Y365F) with A21T, S35N, F365Y
From the text: as §1, §2, §3, §4, §5

[4] = r-N35S/Y365F, MES pH 5.5, 100 μM 14C-uric acid, read-out: IC50 (uric acid transport)
[5] = r-N35S, MES pH 5.5, 100 μM 14C-uric acid, read-out: IC50 (uric acid transport)

With `CCc1oc2ccccc2c1C(=O)c1cc(Br)c(O)c(Br)c1` [benzbromarone] the IC50 [1] was 2.2 ± 0.29 µM, the IC50 [2] was 17 ± 2.1 µM and the IC50 [3] was 22 ± 3.6 µM.

`O=c1[nH]c(=O)c2[nH]c(=O)[nH]c2[nH]1` [uric acid] was tested, and the “fold increased affinity of r-N35S/Y365F compared to rURAT1” value ([1]; from IC50 values) was 5.4 fold, the IC50 [1, 4] was 484 µM and the “fold increased affinity of r-N35S compared to rURAT1” value [2] was “no phenotype”. For the same compound, the IC50 [2, 5] was 2660 µM.

For `O=C1C(CC[S+]([O-])c2ccccc2)C(=O)N(c2ccccc2)N1c1ccccc1` (centres unmarked) [sulfinpyrazone], the IC50 ([1]; r-N35S/Y365F, HEPES pH 7.3, 100 μM 14C-uric acid, read-out: IC50 (uric acid transport)) was 142 ± 15 µM, the “fold increased affinity of r-N35S compared to rURAT1” value [2] was 3.6 fold and the IC50 ([2]; r-N35S, HEPES pH 7.3, 100 μM 14C-uric acid, read-out: IC50 (uric acid transport)) was 189 ± 32 µM. The IC50 ([3]; r-A21T, HEPES pH 7.3, 100 μM 14C-uric acid, read-out: IC50 (uric acid transport)) was 471 ± 81 µM.

Compound `O=C(O)CSc1nnc(Br)n1-c1ccc(C2CC2)c2ccccc12` [lesinurad, 2-((5-bromo-4-(4-cyclopropylnaphthalen-1-yl)-4H-1,2,4-triazol-3-yl)thio)acetic acid] has an IC50 [1, 4] of 1.6 ± 0.03 µM, an IC50 [2, 5] of 57 ± 6.3 µM and an IC50 ([3]; r-A21T, MES pH 5.5, 100 μM 14C-uric acid, read-out: IC50 (uric acid transport)) of 71 ± 5.9 µM.
